Results from patent US20240327334A1, “Covalent Inhibitors As Antiviral Agents” (Enanta Pharmaceuticals, Inc., priority 2022, published 2024).

System: SARS-CoV-2 replicon
Test: microbe, parasite or virus in culture
Format: cell-based
Conditions: Severe acute respiratory syndrome coronavirus 2, Huh-7

`COCc1ccc(-c2cc(C3(NC(=O)c4ccccc4CNC(=O)C(=O)NCC#N)CC3)c3ccccc3c2)s1` [Example 352] and `N#CCNC(=O)C(=O)NCc1ccccc1C(=O)NC1(c2cc(-c3cnn(C4CC4)c3)cc3ccccc23)CC1` [Example 357] cannot be ordered by EC50: less than 1000 nM for the first, less than 1000 nM for the second.

First: N#CCNC(=O)C(=O)NCc1ccccc1C(=O)NC1(c2cc(-c3cccs3)cc(-c3cccs3)c2)CC1 [Example 452]
Second: N#Cc1cc(-c2cccs2)cc(C2(NC(=O)c3ccccc3CNC(=O)C(=O)NCC#Cc3nccs3)CC2)c1 [Example 129]
The EC50 of the first is higher: 1000 to 10000 nM for the first, less than 1000 nM for the second. The second is the more potent here.

`CN1C[C@H](F)C[C@H]1COc1ccc(CNC(=O)C(=O)NCC#N)c(C(=O)NC2(c3cccc4ccccc34)CC2)c1` [Example 318] and `N#CCNC(=O)C(=O)NCc1ccccc1C(=O)NC1(c2ccc(F)c3ccccc23)CC1` [Example 121] cannot be ordered by EC50: less than 1000 nM for the first, less than 1000 nM for the second.

First: Cn1cc2cc(C3(NC(=O)c4ccccc4CNC(=O)C(=O)NCC#Cc4ncccc4OCC(F)F)CC3)ccc2n1 [Example 211]
Second: Cn1cc2cc(C3(NC(=O)c4ccccc4CNC(=O)C(=O)NCC#N)CC3)ccc2n1 [Example 341]
The EC50 of the first is lower: less than 1000 nM for the first, greater than 10000 nM for the second.

`C#CCNC(=O)C(=O)NCc1ccccc1C(=O)NC1(c2cc(OC)cc(-c3cnn(C4CC4)c3)c2)CC1` [Example 244] and `COc1cc(-c2cnn(C3CC3)c2)cc(C2(NC(=O)c3ccccc3CNC(=O)C(=O)NCC#Cc3nccs3)CC2)c1` [Example 246] cannot be ordered by EC50: less than 1000 nM for the first, less than 1000 nM for the second.

`O=C(/C=C/CNC(=O)C(=O)NCc1ccccc1C(=O)NC1(c2cccc3ccccc23)CC1)Nc1ccccn1` [Example 569] and `O=C(NCC#Cc1cccc(F)n1)C(=O)NCc1ccccc1C(=O)NC1(c2ccc3ccccc3c2)CC1` [Example 196] cannot be ordered by EC50: less than 1000 nM for the first, less than 1000 nM for the second.

`CC(=O)N1CCN(c2cc(C3(NC(=O)c4ccccc4CNC(=O)C(=O)NCC#N)CC3)c3ccccc3c2)CC1` [Example 328] and `CN1C(=O)c2cccc3c(C4(NC(=O)c5ccccc5CNC(=O)C(=O)NCC#N)CC4)ccc1c23` [Example 428] fall in the same range of EC50: 1000 to 10000 nM for the first, 1000 to 10000 nM for the second.

`COC(=O)/C=C/CNC(=O)C(=O)NCc1cccc(F)c1C(=O)N[C@H](C)c1cccc2ccccc12` [Example 28] and `N#CCNC(=O)C(=O)NCc1ccccc1C(=O)NC1(c2cccc3nc(Cl)ccc23)CC1` [Example 386] cannot be ordered by EC50: less than 1000 nM for the first, less than 1000 nM for the second.

`C#CCNC(=O)C(=O)NCc1ccccc1C(=O)NC1(c2cc(-c3cccs3)cc(Cl)c2F)CC1` [Example 303] and `C#CCNC(=O)C(=O)NCc1ccccc1C(=O)NC1(c2cccc(-c3cccs3)c2Cl)CC1` [Example 383] cannot be ordered by EC50: less than 1000 nM for the first, less than 1000 nM for the second.

First: N#CN1CCC(F)(C(=O)NCc2ccccc2C(=O)NC2(c3cc(Br)cc4ccccc34)CC2)C1 (stereo not shown) [Example 329]
Second: N#CCNC(=O)C(=O)NCc1ccccc1C(=O)NC1(c2cccc(-c3cccs3)c2Cl)CC1 [Example 382]
The EC50 of the first is lower: less than 1000 nM for the first, 1000 to 10000 nM for the second. The first is the more potent here.

`C#CCNC(=O)C(=O)NCc1ccccc1C(=O)NC1(c2cc(Cl)cc(-c3cc4ccccc4s3)c2)CC1` [Example 445] and `O=C(NCC#Cc1nc2ccccc2s1)C(=O)NCc1ccccc1C(=O)NC1(c2ccc3ccccc3c2)CC1` [Example 177] fall in the same range of EC50: 1000 to 10000 nM for the first, 1000 to 10000 nM for the second.

`Cc1nn(C)cc1-c1cc(F)cc(C2(NC(=O)c3ccccc3CNC(=O)C(=O)N[C@@H](C)C#Cc3ncccc3Cl)CC2)c1` [Example 275] and `C[C@@H](C#Cc1nccs1)NC(=O)C(=O)NCc1ccccc1C(=O)NC1(c2ccc3nn(C)cc3c2)CC1` [Example 184] cannot be ordered by EC50: less than 1000 nM for the first, less than 1000 nM for the second.

`O=C(NCC#Cc1nccs1)C(=O)NCc1ccccc1C(=O)NC1(c2ccc3c4c(cccc24)CC3)CC1` [Example 440] and `C#CCNC(=O)C(=O)NCc1ccc(C#N)cc1C(=O)NC1(c2ccc(F)c3ccccc23)CC1` [Example 53] cannot be ordered by EC50: less than 1000 nM for the first, less than 1000 nM for the second.

`COc1cc(C2(NC(=O)c3ccccc3CNC(=O)C(=O)N[C@@H](C)C#Cc3ccc(C#N)cc3F)CC2)cc2cn(C3CC3)nc12` [Example 334] and `C[C@@H](C#Cc1ccc(C#N)cc1OC(F)(F)F)NC(=O)C(=O)NCc1ccccc1C(=O)NC1(c2ccc3nn(C)cc3c2)CC1` [Example 206] cannot be ordered by EC50: less than 1000 nM for the first, less than 1000 nM for the second.

`N#Cc1cccc(C#CCNC(=O)C(=O)NCc2ccccc2C(=O)NC2(c3ccc4ccccc4c3)CC2)n1` [Example 193] showed an EC50 of less than 1000 nM.

Target: SARS-CoV-2 Papain-like (PLpro) protease (Severe acute respiratory syndrome coronavirus 2, UniProt P0DTD1)
Test: SARS-CoV-2 Papain-like (PLpro) protease biochemical enzyme inhibition assay (ubiquitin-fluorophore substrate, Ub-R110)
Conditions: Ub-R110 substrate; run in duplicate; read-out: PLpro IC50

`COCc1ccc(-c2cc(C3(NC(=O)c4ccccc4CNC(=O)C(=O)NCC#N)CC3)c3ccccc3c2)s1` [Example 352] and `N#CCNC(=O)C(=O)NCc1ccccc1C(=O)NC1(c2cc(-c3cnn(C4CC4)c3)cc3ccccc23)CC1` [Example 357] cannot be ordered by IC50: less than 100 nM for the first, less than 100 nM for the second.

`N#CCNC(=O)C(=O)NCc1ccccc1C(=O)NC1(c2cc(-c3cccs3)cc(-c3cccs3)c2)CC1` [Example 452] and `N#Cc1cc(-c2cccs2)cc(C2(NC(=O)c3ccccc3CNC(=O)C(=O)NCC#Cc3nccs3)CC2)c1` [Example 129] cannot be ordered by IC50: less than 100 nM for the first, less than 100 nM for the second.

`CN1C[C@H](F)C[C@H]1COc1ccc(CNC(=O)C(=O)NCC#N)c(C(=O)NC2(c3cccc4ccccc34)CC2)c1` [Example 318] and `N#CCNC(=O)C(=O)NCc1ccccc1C(=O)NC1(c2ccc(F)c3ccccc23)CC1` [Example 121] cannot be ordered by IC50: less than 100 nM for the first, less than 100 nM for the second.

First: Cn1cc2cc(C3(NC(=O)c4ccccc4CNC(=O)C(=O)NCC#Cc4ncccc4OCC(F)F)CC3)ccc2n1 [Example 211]
Second: Cn1cc2cc(C3(NC(=O)c4ccccc4CNC(=O)C(=O)NCC#N)CC3)ccc2n1 [Example 341]
The IC50 of the first is lower: less than 100 nM for the first, 100 to 1000 nM for the second. The first is the more potent here.

`C#CCNC(=O)C(=O)NCc1ccccc1C(=O)NC1(c2cc(OC)cc(-c3cnn(C4CC4)c3)c2)CC1` [Example 244] and `COc1cc(-c2cnn(C3CC3)c2)cc(C2(NC(=O)c3ccccc3CNC(=O)C(=O)NCC#Cc3nccs3)CC2)c1` [Example 246] cannot be ordered by IC50: less than 100 nM for the first, less than 100 nM for the second.

First: O=C(/C=C/CNC(=O)C(=O)NCc1ccccc1C(=O)NC1(c2cccc3ccccc23)CC1)Nc1ccccn1 [Example 569]
Second: O=C(NCC#Cc1cccc(F)n1)C(=O)NCc1ccccc1C(=O)NC1(c2ccc3ccccc3c2)CC1 [Example 196]
The IC50 of the first is higher: 100 to 1000 nM for the first, less than 100 nM for the second.

`CC(=O)N1CCN(c2cc(C3(NC(=O)c4ccccc4CNC(=O)C(=O)NCC#N)CC3)c3ccccc3c2)CC1` [Example 328] and `CN1C(=O)c2cccc3c(C4(NC(=O)c5ccccc5CNC(=O)C(=O)NCC#N)CC4)ccc1c23` [Example 428] cannot be ordered by IC50: less than 100 nM for the first, less than 100 nM for the second.

`COC(=O)/C=C/CNC(=O)C(=O)NCc1cccc(F)c1C(=O)N[C@H](C)c1cccc2ccccc12` [Example 28] and `N#CCNC(=O)C(=O)NCc1ccccc1C(=O)NC1(c2cccc3nc(Cl)ccc23)CC1` [Example 386] cannot be ordered by IC50: less than 100 nM for the first, less than 100 nM for the second.

`C#CCNC(=O)C(=O)NCc1ccccc1C(=O)NC1(c2cc(-c3cccs3)cc(Cl)c2F)CC1` [Example 303] and `C#CCNC(=O)C(=O)NCc1ccccc1C(=O)NC1(c2cccc(-c3cccs3)c2Cl)CC1` [Example 383] cannot be ordered by IC50: less than 100 nM for the first, less than 100 nM for the second.

`N#CN1CCC(F)(C(=O)NCc2ccccc2C(=O)NC2(c3cc(Br)cc4ccccc34)CC2)C1` (stereo not shown) [Example 329] and `N#CCNC(=O)C(=O)NCc1ccccc1C(=O)NC1(c2cccc(-c3cccs3)c2Cl)CC1` [Example 382] cannot be ordered by IC50: less than 100 nM for the first, less than 100 nM for the second.

Compared with `C#CCNC(=O)C(=O)NCc1ccccc1C(=O)NC1(c2cc(Cl)cc(-c3cc4ccccc4s3)c2)CC1` [Example 445], `O=C(NCC#Cc1nc2ccccc2s1)C(=O)NCc1ccccc1C(=O)NC1(c2ccc3ccccc3c2)CC1` [Example 177] is higher in IC50: less than 100 nM for the first, 100 to 1000 nM for the second.

`Cc1nn(C)cc1-c1cc(F)cc(C2(NC(=O)c3ccccc3CNC(=O)C(=O)N[C@@H](C)C#Cc3ncccc3Cl)CC2)c1` [Example 275] and `C[C@@H](C#Cc1nccs1)NC(=O)C(=O)NCc1ccccc1C(=O)NC1(c2ccc3nn(C)cc3c2)CC1` [Example 184] cannot be ordered by IC50: less than 100 nM for the first, less than 100 nM for the second.

`O=C(NCC#Cc1nccs1)C(=O)NCc1ccccc1C(=O)NC1(c2ccc3c4c(cccc24)CC3)CC1` [Example 440] and `C#CCNC(=O)C(=O)NCc1ccc(C#N)cc1C(=O)NC1(c2ccc(F)c3ccccc23)CC1` [Example 53] cannot be ordered by IC50: less than 100 nM for the first, less than 100 nM for the second.

`COc1cc(C2(NC(=O)c3ccccc3CNC(=O)C(=O)N[C@@H](C)C#Cc3ccc(C#N)cc3F)CC2)cc2cn(C3CC3)nc12` [Example 334] and `C[C@@H](C#Cc1ccc(C#N)cc1OC(F)(F)F)NC(=O)C(=O)NCc1ccccc1C(=O)NC1(c2ccc3nn(C)cc3c2)CC1` [Example 206] cannot be ordered by IC50: less than 100 nM for the first, less than 100 nM for the second.

Work on `N#Cc1cccc(C#CCNC(=O)C(=O)NCc2ccccc2C(=O)NC2(c3ccc4ccccc4c3)CC2)n1` [Example 193] yielded an IC50 of less than 100 nM.
